Experimental data reported in ChEMBL document CHEMBL1201862, “PubChem BioAssay data set” (2004).
Activity calls are given as the source filed them.

Tests used:
[1] = biological target: DNA dC->dU-editing enzyme APOBEC-3G (Homo sapiens, UniProt Q9HC16); assay: Dose Response confirmation of small molecule APOBEC3G DNA Deaminase Inhibitors via a fluorescence-based single-stranded DNA deaminase assay. [Related pubchem assays (depositor defined):AID493012, AID493028]; format: functional
[2] = biological target: FAD-linked sulfhydryl oxidase ALR (Homo sapiens, UniProt P55789); assay: inhibitors of human ALR sulfhydryl oxidase, dose response, biochemical, H2O2 detection, luminescence, cherry-pick (AID 493248)
[3] = biological target: T1, Coagulation factor XII (Homo sapiens, UniProt P00748); format: functional;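 also: activated factor XIIa alpha cleaving a fluorogenic AMC peptide substrate; inhibitor potency from loss of enzyme activity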
T1 sequence (P00748 whole entry): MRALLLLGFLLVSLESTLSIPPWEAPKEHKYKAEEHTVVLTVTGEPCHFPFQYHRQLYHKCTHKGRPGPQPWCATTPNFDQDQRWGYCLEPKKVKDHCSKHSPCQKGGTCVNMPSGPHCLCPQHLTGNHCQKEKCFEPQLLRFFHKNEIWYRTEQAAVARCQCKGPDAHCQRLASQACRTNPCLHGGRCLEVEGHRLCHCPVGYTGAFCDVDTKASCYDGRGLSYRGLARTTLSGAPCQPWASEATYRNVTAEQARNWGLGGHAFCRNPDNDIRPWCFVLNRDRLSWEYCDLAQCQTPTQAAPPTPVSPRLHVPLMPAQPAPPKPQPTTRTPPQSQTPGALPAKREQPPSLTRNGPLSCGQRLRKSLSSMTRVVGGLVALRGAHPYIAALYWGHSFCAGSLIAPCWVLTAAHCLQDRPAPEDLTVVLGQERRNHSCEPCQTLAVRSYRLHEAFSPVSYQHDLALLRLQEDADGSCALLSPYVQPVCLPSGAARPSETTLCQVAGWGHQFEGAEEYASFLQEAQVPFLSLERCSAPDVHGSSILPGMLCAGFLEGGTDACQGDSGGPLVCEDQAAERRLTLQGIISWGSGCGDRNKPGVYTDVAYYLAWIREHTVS

[4] = A cytotoxicity screen of small molecule inhibitors of the PhoP region in Salmonella typhi identified in the primary screen. [Related pubchem assays: 1850, 1864, 1985 ]; format: functional
[5] = biological target: T2, Long-chain-fatty-acid--AMP ligase FadD28 (Mycobacterium tuberculosis, UniProt P9WQ59); assay: Fluorescence polarization aasay to screen for inhibitors that compete for the binding of FadD28 to a bisubstrate Measured in Biochemical System Using Plate Reader - 2147-01_Inhibitor_Dose_CherryPick_Activity.; format: functional, Mycobacterium tuberculosis H37Rv
T2 sequence (P9WQ59 whole entry): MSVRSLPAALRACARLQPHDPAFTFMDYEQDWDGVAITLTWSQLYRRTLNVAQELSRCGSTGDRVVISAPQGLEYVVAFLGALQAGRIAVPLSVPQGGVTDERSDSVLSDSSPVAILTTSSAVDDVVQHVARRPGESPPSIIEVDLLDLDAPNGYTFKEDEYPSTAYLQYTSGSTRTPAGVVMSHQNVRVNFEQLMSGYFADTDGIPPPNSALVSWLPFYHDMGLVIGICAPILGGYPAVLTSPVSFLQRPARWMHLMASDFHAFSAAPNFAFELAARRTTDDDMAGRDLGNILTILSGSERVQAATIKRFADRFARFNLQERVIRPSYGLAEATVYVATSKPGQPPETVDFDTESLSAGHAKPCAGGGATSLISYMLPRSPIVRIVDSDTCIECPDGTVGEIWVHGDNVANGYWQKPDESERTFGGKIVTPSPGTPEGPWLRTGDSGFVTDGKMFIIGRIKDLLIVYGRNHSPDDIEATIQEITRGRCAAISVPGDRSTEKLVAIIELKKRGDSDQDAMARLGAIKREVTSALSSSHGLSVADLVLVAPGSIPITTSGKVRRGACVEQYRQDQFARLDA

[6] = biological target: T3, Carboxy-terminal domain RNA polymerase II polypeptide A small phosphatase 1 (Homo sapiens, UniProt Q9GZU7); assay: inhibitors of CTDSP1, concentration-response testing, biochemical assay, absorbance-based, actives from ultra-high-throughput screening (AID 540297); format: functional
T3 sequence (Q9GZU7 whole entry): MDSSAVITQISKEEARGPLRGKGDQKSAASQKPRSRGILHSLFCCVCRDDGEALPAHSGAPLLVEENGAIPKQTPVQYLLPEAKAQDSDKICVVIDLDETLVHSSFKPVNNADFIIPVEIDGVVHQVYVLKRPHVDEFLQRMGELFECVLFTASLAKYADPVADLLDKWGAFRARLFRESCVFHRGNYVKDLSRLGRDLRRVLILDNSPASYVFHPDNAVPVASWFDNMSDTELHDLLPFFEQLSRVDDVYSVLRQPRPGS

[7] = tested on: BJ; assay: cytotoxicity toward BJ-TERT fibroblasts, dose response, cell-based, RAS-independent, luminescence (AID 1933); format: functional; conditions: Homo sapiens
[8] = biological target: T4, Protein skinhead-1 (Caenorhabditis elegans, UniProt P34707); format: functional
T4 sequence (P34707 whole entry): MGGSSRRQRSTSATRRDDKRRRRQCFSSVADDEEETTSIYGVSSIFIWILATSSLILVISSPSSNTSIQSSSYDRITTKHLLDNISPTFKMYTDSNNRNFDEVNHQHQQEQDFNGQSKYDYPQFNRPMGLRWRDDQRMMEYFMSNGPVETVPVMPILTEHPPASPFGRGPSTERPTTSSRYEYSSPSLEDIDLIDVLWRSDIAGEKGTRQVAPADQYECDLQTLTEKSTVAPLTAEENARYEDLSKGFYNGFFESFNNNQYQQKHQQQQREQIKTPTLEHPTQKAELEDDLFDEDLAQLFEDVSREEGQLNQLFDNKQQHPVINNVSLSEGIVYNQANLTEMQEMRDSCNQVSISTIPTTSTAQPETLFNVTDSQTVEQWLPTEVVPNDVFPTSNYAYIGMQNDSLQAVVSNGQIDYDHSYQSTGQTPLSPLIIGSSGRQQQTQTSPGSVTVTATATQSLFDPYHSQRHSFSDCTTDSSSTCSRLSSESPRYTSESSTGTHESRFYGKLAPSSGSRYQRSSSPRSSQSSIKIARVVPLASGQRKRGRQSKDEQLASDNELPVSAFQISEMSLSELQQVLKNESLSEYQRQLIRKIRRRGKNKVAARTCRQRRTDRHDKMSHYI

[9] = cytotoxicity toward DRD oncogenic fibroblasts, dose response, cell-based, non-viral oncogenic, luminescence (AID 1934); format: functional; conditions: Homo sapiens
[10] = tested on: BJ; assay: cytotoxicity toward BJ-TERT-LT-ST fibroblasts, dose response, cell-based, RAS-independent, luminescence (AID 1935); format: functional; conditions: Homo sapiens;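 also: BJ fibroblasts immortalized with TERT plus LT and ST oncogenes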
[11] = tested on: BJ; assay: cells; format: functional, cell-based; conditions: Homo sapiens
[12] = cytotoxicity in HEK-293T cells, dose response, cytotoxicity control for TCR NF-kB inhibitor project, luminescence, T-cell screen hits (AID 489026); format: functional, cell-based;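 also: cells exposed to compound about 14 hours before the viability readout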
[13] = inhibitors of firefly luciferase expression or activity, dose response, H4 neuroglioma cells, luminescence (AID 1990); format: functional, cell-based
[14] = Luminescence Cell-Based Dose Response HTS to Identify Inhibitors of 5'UTR Stem-Loop Driven Prion Protein mRNA Translation in H4 Neuroglioblastoma Cells. [Related pubchem assays: 1827 (Project Summary), 1813 (Primary HTS)]; format: functional
[15] = inhibitors of SNCA 5'UTR-driven reporter translation, confirmation, H4 neuroglioma cells, luminescence (AID 1988); format: functional, cell-based
[16] = biological target: T5, Heat shock factor protein 1 (Mus musculus, UniProt P38532); assay: inhibition of MG132-induced HSE-luciferase signal, confirmation, cell-based, NIH3T3, luminescence, dose retest (AID 2382); format: functional;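 also: NIH3T3 fibroblasts with HSF1-driven luciferase reporter stressed by proteasome inhibitor MG132; luminescence from HSF1-driven luciferase expression after 8 hours of MG132 stress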
T5 sequence (P38532 whole entry): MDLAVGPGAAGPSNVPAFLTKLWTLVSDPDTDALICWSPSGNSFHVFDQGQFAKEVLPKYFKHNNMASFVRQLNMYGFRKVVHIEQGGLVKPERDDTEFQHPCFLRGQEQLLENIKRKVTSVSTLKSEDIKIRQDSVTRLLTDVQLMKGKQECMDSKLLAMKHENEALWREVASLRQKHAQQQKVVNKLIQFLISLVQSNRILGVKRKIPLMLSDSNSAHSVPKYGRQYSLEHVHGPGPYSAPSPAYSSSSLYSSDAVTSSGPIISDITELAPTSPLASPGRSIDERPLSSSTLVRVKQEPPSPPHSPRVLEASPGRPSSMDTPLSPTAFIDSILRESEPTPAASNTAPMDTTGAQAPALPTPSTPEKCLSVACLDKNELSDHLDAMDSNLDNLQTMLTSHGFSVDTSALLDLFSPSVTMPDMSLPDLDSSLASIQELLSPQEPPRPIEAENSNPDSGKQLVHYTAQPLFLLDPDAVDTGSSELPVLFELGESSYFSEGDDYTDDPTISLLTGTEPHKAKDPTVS

[17] = biological target: T6, Adenosylmethionine-8-amino-7-oxononanoate aminotransferase (Mycobacterium tuberculosis, UniProt P9WQ81); assay: Mycobacterium tuberculosis BioA enzyme inhibitor Measured in Biochemical System Using Plate Reader - 2163-02_Inhibitor_Dose_CherryPick_Activity.; format: functional, Mycobacterium tuberculosis UT205
T6 sequence (P9WQ81 whole entry): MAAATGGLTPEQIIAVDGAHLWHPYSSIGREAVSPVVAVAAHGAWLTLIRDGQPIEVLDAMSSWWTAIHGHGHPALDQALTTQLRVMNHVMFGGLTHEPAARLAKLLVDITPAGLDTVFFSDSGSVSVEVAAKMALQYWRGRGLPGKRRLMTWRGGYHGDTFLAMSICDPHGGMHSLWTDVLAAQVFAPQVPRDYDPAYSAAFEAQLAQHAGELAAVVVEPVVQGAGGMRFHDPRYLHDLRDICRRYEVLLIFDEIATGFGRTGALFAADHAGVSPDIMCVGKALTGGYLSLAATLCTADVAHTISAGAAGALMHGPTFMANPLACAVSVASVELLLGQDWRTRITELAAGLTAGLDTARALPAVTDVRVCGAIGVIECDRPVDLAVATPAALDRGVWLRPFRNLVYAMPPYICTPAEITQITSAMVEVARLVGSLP

[18] = biological target: T7, Hepatocyte nuclear factor 4-alpha (Homo sapiens, UniProt P41235); format: functional, cell-based;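 also: biochemical luminescence-based dose-response counterscreen measuring inhibition of HNF4 dimerization, run alongside a screen for blockers of ABHD5–perilipin-5 interaction; split luciferase complementation of HNF4 fusion proteins in cell lysate measuring dimerization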
T7 sequence (P41235 whole entry): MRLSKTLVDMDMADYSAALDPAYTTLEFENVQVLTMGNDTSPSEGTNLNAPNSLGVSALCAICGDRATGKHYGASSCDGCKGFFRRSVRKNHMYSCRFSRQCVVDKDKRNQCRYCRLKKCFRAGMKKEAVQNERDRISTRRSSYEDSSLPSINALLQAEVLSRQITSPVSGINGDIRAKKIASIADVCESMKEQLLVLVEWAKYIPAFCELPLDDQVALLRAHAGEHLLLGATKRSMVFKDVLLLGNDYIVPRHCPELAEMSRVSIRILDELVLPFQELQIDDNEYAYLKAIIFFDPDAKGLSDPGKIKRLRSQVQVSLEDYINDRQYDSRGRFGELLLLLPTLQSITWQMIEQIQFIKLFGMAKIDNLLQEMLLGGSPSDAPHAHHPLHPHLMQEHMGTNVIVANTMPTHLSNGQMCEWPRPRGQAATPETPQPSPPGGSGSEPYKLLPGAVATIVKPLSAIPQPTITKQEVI

[19] = biological target: Genome polyprotein (dengue virus type 2, UniProt P29990); assay: Dengue-2 NS5 methyltransferase inhibitors, primary screen, biochemical, confirmation dose response (AID 588689); format: functional
Genome polyprotein, sequence (P29990 2492-3391 limits assumed): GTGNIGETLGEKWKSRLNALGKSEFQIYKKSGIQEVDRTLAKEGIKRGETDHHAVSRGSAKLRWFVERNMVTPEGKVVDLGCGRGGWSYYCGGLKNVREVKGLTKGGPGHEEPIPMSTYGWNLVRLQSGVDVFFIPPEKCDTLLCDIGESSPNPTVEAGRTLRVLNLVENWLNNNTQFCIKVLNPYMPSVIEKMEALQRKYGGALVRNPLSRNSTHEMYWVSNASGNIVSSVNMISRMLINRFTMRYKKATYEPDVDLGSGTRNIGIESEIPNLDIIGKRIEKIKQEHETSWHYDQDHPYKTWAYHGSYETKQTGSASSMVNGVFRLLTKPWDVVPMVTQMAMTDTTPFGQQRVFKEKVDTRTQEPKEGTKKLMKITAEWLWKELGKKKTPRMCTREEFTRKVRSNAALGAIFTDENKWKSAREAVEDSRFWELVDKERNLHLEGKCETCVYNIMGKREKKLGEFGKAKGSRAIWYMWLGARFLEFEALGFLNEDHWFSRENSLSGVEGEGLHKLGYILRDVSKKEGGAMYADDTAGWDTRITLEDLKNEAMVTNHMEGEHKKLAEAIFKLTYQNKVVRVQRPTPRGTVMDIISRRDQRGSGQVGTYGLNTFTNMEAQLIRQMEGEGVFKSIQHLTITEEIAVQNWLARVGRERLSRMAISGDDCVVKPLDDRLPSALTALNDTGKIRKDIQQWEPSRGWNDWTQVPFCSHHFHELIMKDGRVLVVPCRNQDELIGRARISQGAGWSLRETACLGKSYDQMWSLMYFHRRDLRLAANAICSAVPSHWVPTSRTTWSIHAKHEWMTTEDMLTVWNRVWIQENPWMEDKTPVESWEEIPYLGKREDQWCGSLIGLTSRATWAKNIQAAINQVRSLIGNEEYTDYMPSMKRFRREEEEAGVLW

DNA dC->dU-editing enzyme APOBEC-3G, sequence (Q9HC16 whole entry): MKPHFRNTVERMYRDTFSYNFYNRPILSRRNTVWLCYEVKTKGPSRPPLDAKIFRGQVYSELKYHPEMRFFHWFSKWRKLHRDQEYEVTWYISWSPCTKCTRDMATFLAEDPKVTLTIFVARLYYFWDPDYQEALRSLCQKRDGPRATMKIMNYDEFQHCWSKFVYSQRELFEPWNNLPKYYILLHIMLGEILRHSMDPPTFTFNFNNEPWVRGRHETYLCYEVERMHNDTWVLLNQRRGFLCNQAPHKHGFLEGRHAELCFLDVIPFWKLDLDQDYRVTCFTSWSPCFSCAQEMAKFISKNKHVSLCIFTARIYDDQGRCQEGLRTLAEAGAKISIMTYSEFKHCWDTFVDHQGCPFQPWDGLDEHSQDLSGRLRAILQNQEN
FAD-linked sulfhydryl oxidase ALR, sequence (P55789 whole entry): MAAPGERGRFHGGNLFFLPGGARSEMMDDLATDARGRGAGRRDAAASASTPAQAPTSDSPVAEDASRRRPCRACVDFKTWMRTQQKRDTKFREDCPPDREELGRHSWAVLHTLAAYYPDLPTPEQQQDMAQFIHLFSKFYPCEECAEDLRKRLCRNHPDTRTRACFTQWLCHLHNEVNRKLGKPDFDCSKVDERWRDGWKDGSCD

## CCCCn1c(-c2ccco2)n[nH]c1=S
[1]
  IC50: 8.1 µM (active)
[2]
  AC50: 33.6 µM (active)

## Cc1cccc(N2N=C(C(=O)N3CC(=O)Nc4ccccc43)CCC2=O)c1
[3]
  IC50: > 50 µM (inactive)

## Cc1c(C)n(C)c2ccc(C(=O)NCc3cccs3)cc12
[4]
  EC50: > 50 µM (active)
[5]
  AC50: 56.8 µM (active)

## O=C(O)c1ccc(COc2ccccc2/C=C2\NC(=O)N(Cc3ccc(F)cc3)C2=O)cc1
[6]
  IC50: 6.42 µM (active)

## O=C(c1ccc(Cl)cc1)c1cc([N+](=O)[O-])ccc1N1CCOCC1
[7]
  EC50: 1.51 µM (active)
[8]
  IC50: 56.9 µM (inactive)
[9]
  EC50: 1.17 µM (active)
[10]
  EC50: 1.19 µM (inconclusive)
[11]
  EC50: 19 µM (active)
[12]
  IC50: > 80 µM (inactive)

## COC(=O)C(NC(=O)c1ccco1)(Nc1nc(C)cs1)C(F)(F)F (stereo not drawn)
[3]
  IC50: > 50 µM (inactive)

## COc1ccccc1NC(=O)Cn1cnc2c(oc3nc4c(cc32)CCCC4)c1=O
[5]
  AC50: 77.8 µM (active)

## Cc1nc(Nc2nc(O)c3c(n2)CCC3)nc2ccccc12
[13]
  EC50: > 120 µM (not active)
[14]
  EC50: > 120 µM (not active)
[15]
  EC50: 9.61 µM (active)
[12]
  IC50: > 80 µM (inactive)

## CC1=C(C(=O)Nc2ccc(C)cc2)C(c2ccc(C)o2)C2=C(O)CC(C)(C)CC2=N1 (stereo not drawn)
[16]
  EC50: > 195 µM (not active)
[3]
  IC50: > 50 µM (inactive)

## O=C(Nc1ccccc1)N1CCN(Cc2ccc3c(c2)OCO3)CC1
[17]
  AC50: 2.63 µM (active)

## CN(C)c1ccc(/C=C2/C(=O)N(CCc3ccc(F)cc3)C(=O)N=C2O)cc1
[5]
  AC50: 23.4 µM (active)

## CCc1c(C)nc2ncnn2c1Nc1ccc(C#N)c(Cl)c1
[17]
  AC50: 10.5 µM (active)

## COC(=O)c1ccc(Oc2nc(NC(C)C)nc(SC)n2)cc1
[3]
  IC50: > 50 µM (inactive)

## Cc1cccc(-c2ccc3c(c2)C2CC3CCN2)c1 (stereo not drawn)
[17]
  AC50: 4.64 µM (active)

## Cc1cc(Cl)c(S(=O)(=O)NC(C(=O)O)c2ccccc2)cc1OCC(N)=O (stereo not drawn)
[6]
  IC50: 12.9 µM (active)

## Oc1c(C(c2ccccc2)N2CCCCC2)ccc2ccccc12 (stereo not drawn)
[18]
  IC50: 0.828 µM (active)

## O=C(NCc1ccccc1)C(c1cccc2ccccc12)n1c(=O)c(-c2ccco2)nc2ccccc21 (stereo not drawn)
[18]
  IC50: 2.77 µM (active)

## CC(C)(C)NC(=O)C(c1ccnc2ccccc12)n1c(=O)c(-c2ccco2)nc2ccccc21 (stereo not drawn)
[18]
  IC50: 3.18 µM (active)

## COc1ccc(/C=N/NC(=O)CCn2cnc3ccccc32)cc1
[3]
  IC50: > 50 µM (inactive)

## CCOc1cc(/C=N/NC2=NC(=O)C(CC(=O)O)S2)ccc1OCc1ccc(Cl)cc1 (stereo not drawn)
[19]
  IC50: 47.9 µM (active)
[6]
  IC50: 7.12 µM (active)

## O=[N+]([O-])c1ccc(Cl)c(/C=N/n2c(S)nnc2-c2ccncc2)c1
[1]
  IC50: 4.79 µM (active)
